The SangsterLogP compilation
Peptide text beside a SMILES is read from it. * marks the point of attachment. NHtBu = CC(C)(C)N*

What was measured:
[1] = method code SF-AS, from DOI: 10.1021/jm00384a018, PMID: 3806586
[2] = method code SF-AS, from DOI: 10.1021/jm00254a028, PMID: 4845386
[3] = not given; remark: listed apart in the source
[4] = not given; remark: listed apart in the source
[5] = method code SF-RC, from DOI: 10.1002/ps.2780240105; conditions: pH 7.0
[6] = method code SF, from DOI: 10.1016/0048-3575(89)90162-4
[7] = method code SF, from DOI: 10.1021/jm0498699.s001, PMID: 15163209
[8] = method code SF-RC, from DOI: 10.1021/es00096a007
[9] = not given; remark: listed apart in the source
[10] = method code SF-AS, from DOI: 10.1002/ardp.19843170314
[11] = method code SF-RC, from DOI: 10.1016/s0969-8051(98)00005-5, PMID: 9720665; conditions: pH 7.0
[12] = method code SF-RC, from DOI: 10.1111/j.2042-7158.1987.tb06949.x, PMID: 2882008; conditions: pH 1.0
[13] = method code SF, from DOI: 10.1016/0006-2952(79)90295-8, PMID: 36087
[14] = not given; remark: listed apart in the source
[15] = method code SF-AS, from DOI: 10.1002/jps.2600741028, PMID: 4078715
[16] = pH 7.4
[17] = method code SF, from DOI: 10.1016/0048-3575(74)90109-6
[18] = method code SF-RC, from DOI: 10.1002/jlcr.1863; conditions: pH 7.4
[19] = method code SF-AS, from DOI: 10.1016/0048-3575(87)90152-0
[20] = method code SF-AS, from DOI: 10.1021/jm00160a012, PMID: 3761307; conditions: pH 7.4
[21] = method code SF-HPLC, from DOI: 10.1023/a:1015968113838, PMID: 3247280; conditions: pH 7.4
[22] = method code SF-HPLC, from DOI: 10.1016/0928-0987(95)00046-1; conditions: pH 4.0
[23] = method code SF-AS, from PMID: 19779; conditions: pH 2.0
[24] = method code SF-AS, from DOI: 10.1021/jm991080o, PMID: 10579844; conditions: pH 7.4
[25] = not given; remark: listed apart in the source
[26] = method code SF-HPLC, from DOI: 10.1021/jm00119a020; conditions: pH 7.4
[27] = method code RP-HPLC, from DOI: 10.1016/0143-7208(91)85018-4; conditions: pH 7.0
[28] = method code SF, from DOI: 10.1007/bf01610114, PMID: 6839039
[29] = method code SF, from DOI: 10.3109/00498258709043934, PMID: 3564538
[30] = not given; remark: listed apart in the source
[31] = not given; remark: listed apart in the source
[32] = method code SF, from DOI: 10.3109/00498258909043190, PMID: 2618089; conditions: pH 10.8
[33] = not given; remark: listed apart in the source
[34] = method code SF-HPLC, from DOI: 10.1111/j.1747-0285.2011.01193.x, PMID: 21777394; conditions: pH 7.4
[35] = method code SF-RC, from DOI: 10.1023/a:1015892313856, PMID: 1495896; conditions: pH 7.2
[36] = method code SF-GLC, from DOI: 10.1002/ps.2780120408; conditions: pH 7.0
[37] = method code SF-HPLC, from DOI: 10.1002/jps.23140, PMID: 22499243; conditions: pH 7.4
[38] = not given; remark: listed apart in the source
[39] = not given; remark: listed apart in the source
[40] = pH 7.4; remark: listed apart in the source
[41] = method code SF, from PMID: 8265709; conditions: pH 7.4
[42] = not given; remark: listed apart in the source
[43] = not given; remark: listed apart in the source
[44] = method code SF-AS, from DOI: 10.1021/jm00392a004, PMID: 3625703; conditions: pH 6.9
[45] = method code SF-RC, from DOI: 10.1002/jps.2600651126, PMID: 11336; conditions: pH 2.0
[46] = method code SF-RC, from DOI: 10.1016/j.nucmedbio.2009.09.005, PMID: 20447558; conditions: pH 7.4
[47] = not given; remark: listed apart in the source

`CC(=O)C1=CCCN(NC(=O)c2ccccc2)C1` showed a logP [1] of -0.1.
With `c1ccc(CCc2ccccc2)cc1` the logP was 4.6.
`OC1c2ccccc2C2CCCCC2C1O` (stereo not drawn) showed a logP [2] of 2.47.
`O=c1ccn(CCO)c(C(O)c2ccccc2)c1O` (stereo not drawn) showed a logP [3] of 0.58.
In the case of `CC1c2nc3ccccc3c(=O)n2CCN1C` (stereo not drawn), the logP [4] is reported as 0.64.
For `CCCCc1c(C)nc(NCC)nc1OS(=O)(=O)N(C)C`, the logD [5] was 2.7.
`OC1(c2ccccc2Cl)CCCCC1n1cncn1` (stereo not drawn) gave a logP [6] of 2.68.
Molecule `COC(=O)CCNC(=O)c1cc(N2CC2)c([N+](=O)[O-])cc1[N+](=O)[O-]` has a logP [7] of 0.56.
For `Nc1ccc2cc3ccccc3cc2c1`, the logP [8] was 4.13.
Molecule `CCN(CC)CCOC(=O)c1ccc(N)cc1` has a logP [9] of 2.1.
With `O=C(O)Cc1ccccc1Oc1ccc(Cl)cc1Cl` the logP [10] was 4.8.
Molecule `OC1OC2COC(c3ccc(I)cc3)OC2C(O)C1O` (stereo not drawn) has a logD [11] of 1.9.
With `Cc1c(Cl)cccc1Nc1ccccc1C(=O)O` the logD [12] was 4.18.
`CC(C)NCC(O)COc1cccc(CC(N)=O)c1` (stereo not drawn) showed a logP [13] of 0.22.
In the case of `O=C1CN=C(c2cccc(Br)c2)c2cc(Br)ccc2N1`, the logP [14] is reported as 3.88.
`COc1ccc(C=[N+]([O-])c2ccccc2)cc1` gave a logP [15] of 1.94.
Molecule `CCCC(=O)OCOC(=O)c1ccccc1OC(C)=O` has a logD [16] of 2.5.
`Fc1ccc(C(c2ccc(F)cc2)C(Cl)(Cl)Cl)cc1` showed a logP [17] of 4.62.
In the case of `O=c1[nH]c(=O)n(C2CC(O)C(CO)O2)cc1-c1cn(CCF)nn1` (stereo not drawn), the logD [18] is reported as -1.33.
For `CCC(C(=O)Oc1ccccc1)C(C)C` (stereo not drawn), the logP [19] was 4.2.
Molecule `CC1=C(N)C(=O)c2c(COC(N)=O)c3n(c2C1=O)CC(N1CC1)C3N1CC1` (stereo not drawn) has a logD [20] of 0.23.
In the case of `CCCCC(=O)OCC1OC(n2cc(I)c(=O)[nH]c2=O)CC1O` (stereo not drawn), the logD [21] is reported as 1.44.
Molecule `Cc1cnc(NC(=O)C2=C(O)c3ccccc3S(=O)(=O)N2C)s1` has a logD [22] of 2.34.
For `CCC1(c2ccccc2)C(=O)NC(=O)N(C)C1=O` (stereo not drawn), the logD [23] was 1.84.
Work on `CCc1c(O)c(=O)ccn1CCOC(=O)C(C)C` yielded a logD [24] of 0.7.
Work on `Ic1ccc2nc(-c3ccc(-c4nnn[nH]4)cc3)cn2c1` yielded a logP [25] of 1.73.
In the case of `CCCN1CCO[C@H]2c3cc(O)ccc3OC[C@@H]21`, the logD [26] is reported as 1.97.
`Nc1ccc(N)c2c1C(=O)c1ccccc1C2=O` gave a logD [27] of 3.
For `C=CCOC(=O)c1ccccc1C(=O)OCC=C`, the logP [28] was 3.23.
For `CCC(C)OC(=O)C(C(=O)OC(C)CC)=C1SC=CS1` (stereo not drawn), the logP [29] was 4.89.
With `Cc1cc(NC(=O)C2=C(O)c3ccccc3S(=O)(=O)N2C)no1` the logP [30] was 2.83.
Molecule `CC[C@@H](c1cccc(O)c1)[C@@H](C)CN(C)C` has a logP [31] of 2.77.
`O=C(Cn1c(=O)sc2ccc(Cl)cc21)N1CCNCC1` gave a logD [32] of 1.35.
For `OCCN1CCC(COc2ccc(I)cc2)CC1`, the logP [33] was 4.
In the case of `C[C@@H](OC(=O)N(N(CCCl)S(C)(=O)=O)S(C)(=O)=O)c1ccc([N+](=O)[O-])cc1`, the logD [34] is reported as 2.15.
`CC(=O)NC(C)C(=O)N1CCCC1C(=O)NC(C)(C)C` (stereo not drawn) (Ac-Ala-Pro-NHtBu; configuration not given here) showed a logD [35] of -0.39.
Work on `CCOP(=S)(Oc1ccc([N+](=O)[O-])cc1)c1ccccc1` (stereo not drawn) yielded a logD [36] of 3.85.
With `CCCCCCOP1(=O)COC(Cn2ccc(N)nc2=O)CO1` (stereo not drawn) the logD [37] was 2.84.
`O=C(O)C1(O)c2ccccc2-c2ccc(Cl)cc21` (stereo not drawn) showed a logP [38] of 3.22.
For `CCCCC(O)(Cn1cncn1)c1ccc(Cl)cc1Cl` (stereo not drawn), the logP [39] was 3.9.
With `CC(=O)OCC(CCn1cnc2cnc(N)nc21)COC(C)=O` the logD [40] was 0.32.
With `Cc1c(C(C)C)c(=O)n(-c2ccccc2)n1C` the logD [41] was 1.94.
Molecule `COC(=O)C1(O)c2ccccc2-c2ccc(Cl)cc21` (stereo not drawn) has a logP [42] of 2.86.
Work on `C(=C\c1ccccc1)/c1ccccc1` yielded a logP [43] of 4.59.
Work on `CCCCC1(c2ccncc2)CCC(=O)NC1=O` (stereo not drawn) yielded a logD [44] of 1.68.
With `CSc1ccc2oc3ccc(C(=O)O)cc3c(=O)c2c1` the logD [45] was 3.4.
Work on `CN(CCc1ccccc1)C(=O)c1ccc[nH]1` yielded a logD [46] of 1.65.
Molecule `Cn1ccc2cc(-c3nc4ccc(F)nc4o3)ccc21` has a logP [47] of 3.42.
